The values below come from patent US11571453B2, “Piper laetispicum extract and preparation method therefor and use thereof” (SUZHOU YI-HUA BIOMEDICAL TECHNOLOGY CO., LTD, priority 2017, dated 2023).

Each structure is given as a SMILES string.

Common to all, as to assay type: in vivo
The subject of experiment [1] is Kunming mice. Briefly: Mouse tail hanging test. The following applies: 50 mg/kg/d oral, 14 days, 1 h after last dose; n=10, x ± SD. The protocol:
Kunming mice (male, 18-20 g) were randomly divided into 14 groups, each with 10 rats. […] The positive control group was venlafaxine. Continuous administered for 14 days, one time per day. One hour after the last oral administration, the mouse tail hanging test was carried out. The tails of the mice were glued on a wooden bar 50 cm above the table top to make them stand upside down, and the mouse sight was isolated using plates around. The mice would struggle to overcome the abnormal posture, but appear immobile after a period of activity, showing state of despair Duration was 6 minutes, the time of immobility within 6 minutes was recorded.

Experiment [2] concerns Kunming mice. Description: Mouse swimming test. The note with it: 50 mg/kg/d oral, 14 days, 1 h after last dose; n=10, x ± SD. As to the method: Kunming mice (male, 18-20 g) were randomly divided into 12 groups, each with 10 rats. Each group was given the corresponding dose of extract as shown in Table 4 and normal saline was used as control. The positive control group was venlafaxine. Continuous administered for 14 days, one time per day. One hour after the last oral administration, the mice were placed into a glass tank of 10×20 cm and water depth of 10 cm (water temperature 25° C.) for a swimming test. The swimming duration was 6 minutes, the time to stop motion within 5 minutes was recorded.

For the next experiment, the system named is Wistar rats. Briefly: Rat learned helplessness test (conditional avoidance). As to the method: Wistar rats were selected and randomly grouped into 10 rats in each group. The learned helplessness test model was used in which the corresponding dose of extracts shown as in Table 5 were administered orally by gavage. The positive control was venlafaxine. Continuous administered for 7 days, one time per day. 24 h after the last oral administration, a conditional avoidance test is implemented.

The test system of a further experiment is mice. Description: Light and dark box test in mice. The following applies: 2.0 mg/kg oral, 60 min after dose, 5 min test; n = 10, x ± SD. As to the method:
The positive control drug was diazepam. 60 minutes after oral administration, the light and dark box test was implemented. Each mouse is tested for 5 minutes, and each residence time in the light box and the number of shuttles between the light and dark boxes are recorded.

`COc1ccc(C(CN(C)C)C2(O)CCCCC2)cc1` (stereo not drawn) [Venlafaxine, venlafaxine]: in the experiment on Kunming mice [1], the “Immobility time within 6 min” value stood at 60.9 ± 38.5 s. For the same molecule, the “Stop motion within 5 min” value in the experiment with Kunming mice [2] is 75.8 ± 19.4 s. In the experiment with Wistar rats (30 mg/kg/d oral gavage, 7 days, 24 h after last dose, u test n = 10, x ± SD), this molecule gave an Escape latency of 14.15 ± 12.32 s. Further, the “escape latency of the rats, effect in words” value in the experiment on Wistar rats (doses of 10, 5, 2.5 mg/kg/d, compared with the model control group P<0.01) was “significantly shortened the escape latency”.
Regarding `CN1C(=O)CN=C(c2ccccc2)c2cc(Cl)ccc21` [Diazepam, diazepam], in the experiment with mice, the Number of shuttles was 14.23 ± 1.06 and the “Time (residence time in the light box)” value is listed as 121.23 ± 8.12.
